Measurements published in US20090209525A1, “ENABLING METHODS TO IDENTIFY ALLOSTERIC MODULATORS OF RECEPTOR ACTIVITY” (priority 2006, published 2009).
Changes are numbered by the printed parent chain.

Key:
Assay type in all cases: cell-based
rat M1 S109A receptor [1] = biological target: T1, rat M1 S109A receptor (Rattus norvegicus, UniProt P08482, S109A); test: R-SAT functional assay, S109A mutant; settings: Table 3; for Shift: EC50 S109A divided by EC50 wild-type; for EC50 / Eff (%): S109A; for Eff (%): maximum response, normalized
T1 construct: expressed in transfected cells
T1 sequence (P08482 1-460 S109A): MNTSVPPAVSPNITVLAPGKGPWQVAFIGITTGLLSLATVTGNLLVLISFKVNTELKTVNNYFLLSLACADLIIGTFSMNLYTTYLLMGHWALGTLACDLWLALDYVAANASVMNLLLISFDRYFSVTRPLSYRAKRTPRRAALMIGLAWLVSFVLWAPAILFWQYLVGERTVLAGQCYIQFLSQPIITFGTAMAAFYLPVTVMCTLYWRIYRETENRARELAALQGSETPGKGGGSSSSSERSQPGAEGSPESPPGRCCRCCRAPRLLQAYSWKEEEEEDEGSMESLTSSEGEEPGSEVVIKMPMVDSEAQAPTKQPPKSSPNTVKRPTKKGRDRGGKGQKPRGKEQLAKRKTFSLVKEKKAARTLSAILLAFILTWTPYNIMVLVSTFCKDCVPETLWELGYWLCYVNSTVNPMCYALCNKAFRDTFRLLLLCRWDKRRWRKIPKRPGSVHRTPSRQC
Description: Cells are co-transfected for 18 h with DMEM containing 0.08 micrograms/ml of an expression vector for the expression of the mutant receptor and 0.3 micrograms/ml pSI-Bgal (Promega, Madison Wis.), and 0.5% v/v Polyfect (Qiagen, Valencia Calif.), as recommended by the manufacturer. On day three, the medium is replaced with DMEM containing 1% PSG, 0.5% calf serum, 2% cyto-sf3 (Kemp Biotechnologies, Frederick, Md.), and varying concentrations of the compounds to be tested. Cells are grown in a humidified atmosphere with 5% ambient CO2 for 5 days. The media is removed from the plates, and beta-galactosidase activity is measured by the addition of o-nitrophenyl -d-galactopyranoside in phosphate-buffered saline with 5% Nonidet P-40. […] The following equation is fitted to the data using GraphPad Prism software (San Diego, Calif.):
NIH-3T3 cells were grown in 96-well tissue culture plates to 70 to 80% confluence in Dulbecco's modified essential media (DMEM) supplemented with 100 units/ml penicillin, 100 micrograms/ml streptomycin, 0.3 mg/ml L-glutamine (1% PSG, GIBCO) and 10% calf serum (Sigma-Aldrich). Cells were transfected for 18 h with DMEM containing 0.08 micrograms/ml receptor DNA and 0.3 micrograms/ml pSI-Bgal (Promega, Madison Wis.), 0.5% v/v Polyfect (Qiagen, Valencia Calif.). Medium was replaced with DMEM containing 1% PSG, 0.5% calf serum, 2% cyto-sf3 (Kemp Biotechnologies, Frederick, Md.), and varying concentrations of ligand. […] Cells were grown in a humidified atmosphere with 5% ambient CO2 for 5 days. Medium was removed from the plates, and beta-galactosidase activity was measured by the addition of o-nitrophenyl -d-galactopyranoside in phosphate-buffered saline with 5% Nonidet P-40.

[2] = biological target: T2, rat M1 wild-type receptors (Rattus norvegicus, UniProt P08482); test: Phosphatidyl inositol hydrolysis assay, wild-type; settings: for Shift: EC50 divided by EC50 wild-type (reference)
T2 construct: expressed in transfected cells
T2 sequence (P08482 1-460): T1 sequence (P08482 1-460 S109A) with A109S

rat M1 Y106A receptor = biological target: T3, rat M1 Y106A receptor (Rattus norvegicus, UniProt P08482, Y106A); test: Phosphatidyl inositol hydrolysis assay, Y106A; settings: Table 6; for Shift: EC50 Y106A divided by EC50 wild-type; for EC50 / Eff (%): PI hydrolysis, Y106A; for Eff (%): relative to wild-type response to that ligand (clozapine: title says fold-response)
T3 construct: expressed in transfected cells
T3 sequence (P08482 1-460 Y106A): T1 sequence (P08482 1-460 S109A) with Y106A, A109S

rat M1 S109A receptor [3] = biological target: T1, rat M1 S109A receptor; test: Phosphatidyl inositol hydrolysis assay, S109A; settings: Table 6; for Shift: EC50 S109A divided by EC50 wild-type; for EC50 / Eff (%): PI hydrolysis, S109A; for Eff (%): relative to wild-type response to that ligand
[4] = Table 5, PI hydrolysis, maximum response relative to carbachol
[5] = Table 6, PI hydrolysis, M1 WT, maximum response, normalized

Row | SMILES | Shift (rat M1 S109A receptor [1]) | EC50 (rat M1 S109A receptor [1]) | Eff (%) (rat M1 S109A receptor [1]) | Eff (%) [2, 4] | EC50 ([2]; Table 5, PI hydrolysis, wild-type) | Shift ([2]; Table 6) | pEC50 ([2]; Table 6, PI hydrolysis, M1 WT) | Eff (%) [2, 5] | Shift (rat M1 Y106A receptor) | EC50 (rat M1 Y106A receptor) | Eff (%) (rat M1 Y106A receptor) | Shift (rat M1 S109A receptor [3]) | EC50 (rat M1 S109A receptor [3]) | Eff (%) (rat M1 S109A receptor [3]) | EC50 ([2]; Table 6, PI hydrolysis, M1 WT)
1 | CCCCC1CCN(CCCC(=O)c2ccccc2C)CC1 [AC-42, 4-n-butyl-1-[4-(2-methylphenyl)-4-oxo-1-butyl] piperidine hydrogen chloride] | 1 | 158 nM | 59 ± 5% | – | – | – | – | – | – | – | – | – | – | – | –
2 | CCCCC1CCN(CCCN2C(=O)COc3cc(F)ccc32)CC1 [AC-260584, 4-[3-(4-Butyl-piperidin-1-yl)-propyl]-7-fluoro-4H-benzo [1,4]oxazin-3-one] | 1 | 15.8 nM | 104 ± 12% | 99 ± 20% | 50.1 nM | 1 | 7.3 ± 0.1 | 100 ± 7% | 4 | 251 nM | 110 ± 22% | 1 | 79.4 nM | 85 ± 11% | –
3 | Clc1ccc2c(c1)N=C(N1CCNCC1)c1ccccc1N2 [NDMC, 8-chloro-11-(1-piperazinyl)-5H-dibenzo [b,e] [1,4] diazepine] | 2 | 100 nM | 68 ± 9% | 44 ± 17% | – | 1 | – | 55 ± 8% | 3 | 200 nM | 40 ± 4% | 4 | 200 nM | 47 ± 17% | 100 nM
